PMC9090415, “Discovery of small molecule inhibitors of Plasmodium falciparum apicoplast DNA polymerase” (Journal of Enzyme Inhibition and Medicinal Chemistry, 2022)

Biological target: P. falciparum apicoplast DNA polymerase (Pf-apPOL) (Plasmodium falciparum, UniProt Q8ILY1)
Experiment: Fluorescence-based high-throughput DNA polymerase assay (molecular beacon), primary screen and dose-response
Type: biochemical
Conditions: for DNA Pol: 90 min, 10 µM; for % inhibition apPOL 180' 2.5 / % inhibition apPOL 180' 5 / % inhibition apPOL 180' 10 / % inhibition apPOL 180' 20 / % inhibition apPOL 180' 40 / % inhibition apPOL 180' 80: read at 180'
Summary of the method: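 Single-point screening used 10 µM compound with 20 nM polymerase, 20 nM hairpin substrate and 6 µM dNTPs for 90 min at 25 °C. Confirmatory titrations (2.5–80 µM) followed fluorescence at three times, and IC50 was derived from a fit including a cooperativity term n.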

Chain of P. falciparum apicoplast DNA polymerase (Pf-apPOL) (Q8ILY1 entry or part of it): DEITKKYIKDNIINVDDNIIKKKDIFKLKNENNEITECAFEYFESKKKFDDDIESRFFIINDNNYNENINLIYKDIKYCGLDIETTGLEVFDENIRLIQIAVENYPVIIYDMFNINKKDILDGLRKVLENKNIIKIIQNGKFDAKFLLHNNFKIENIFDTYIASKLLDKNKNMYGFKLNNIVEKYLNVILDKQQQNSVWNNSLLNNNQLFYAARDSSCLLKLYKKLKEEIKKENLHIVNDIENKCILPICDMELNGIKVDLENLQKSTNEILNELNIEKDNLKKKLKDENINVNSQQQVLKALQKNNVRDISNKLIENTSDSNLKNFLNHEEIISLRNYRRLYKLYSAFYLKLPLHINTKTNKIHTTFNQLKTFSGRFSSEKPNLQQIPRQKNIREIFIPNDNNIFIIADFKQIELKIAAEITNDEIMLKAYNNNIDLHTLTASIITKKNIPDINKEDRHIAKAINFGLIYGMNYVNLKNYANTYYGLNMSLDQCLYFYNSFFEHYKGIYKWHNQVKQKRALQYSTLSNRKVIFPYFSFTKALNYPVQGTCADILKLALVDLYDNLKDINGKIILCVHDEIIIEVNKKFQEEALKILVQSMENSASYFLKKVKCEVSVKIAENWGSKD

N#Cc1c(O)nc(N2CCCCC2)nc1-c1ccc2c(c1)OCO2 [KU0083146]
DNA Pol (186 hits, DNA Pol (screen value), unit not given): 49 | DNA Pol ('DNA Pol' (screen value), unit not given): 49 | % inhibition Apo pol 10' 2.5 (DRC-1, read at 10', concentration 2.5): 13.1271% | % inhibition Apo pol 10' 5 (DRC-1, read at 10', concentration 5): 26.6749% | % inhibition Apo pol 10' 10 (DRC-1, read at 10', concentration 10): 53.7038% | % inhibition Apo pol 10' 20 (DRC-1, read at 10', concentration 20): 55.5357% | % inhibition Apo pol 10' 40 (DRC-1, read at 10', concentration 40): 66.277% | % inhibition Apo pol 10' 80 (DRC-1, read at 10', concentration 80): 78.8965% | % inhibition Apol 90' 2.5 (DRC-1, read at 90', concentration 2.5): 5.9065% | % inhibition Apol 90' 5 (DRC-1, read at 90', concentration 5): 16.8272% | % inhibition Apol 90' 10 (DRC-1, read at 90', concentration 10): 42.1383% | % inhibition Apol 90' 20 (DRC-1, read at 90', concentration 20): 45.0693% | % inhibition Apol 90' 40 (DRC-1, read at 90', concentration 40): 57.8585% | % inhibition Apol 90' 80 (DRC-1, read at 90', concentration 80): 71.163% | % inhibition apPOL 180' 2.5 (DRC-1, concentration 2.5): -1.148% | % inhibition apPOL 180' 5 (DRC-1, concentration 5): 6.188% | % inhibition apPOL 180' 10 (DRC-1, concentration 10): 30.2008% | % inhibition apPOL 180' 20 (DRC-1, concentration 20): 34.0367% | % inhibition apPOL 180' 40 (DRC-1, concentration 40): 46.9072% | % inhibition apPOL 180' 80 (DRC-1, concentration 80): 62.3261% | % inhibition Apo pol 5' (DRC-2, concentration 2.5): 13% | % inhibition Apo pol 5' (DRC-2, concentration 10): 33% | % inhibition Apo pol 5' (DRC-2, concentration 40): 53% | % inhibition Apol 40' (DRC-2, concentration 2.5): 13% | % inhibition Apol 40' (DRC-2, concentration 10): 33% | % inhibition apPOL 180' (DRC-2, concentration 40): 53% | % inhibition Apo pol 5' 2.5 (DRC-2, read at 5', concentration 2.5): 13% | % inhibition Apo pol 5' 5 (DRC-2, read at 5', concentration 5): 27% | % inhibition Apo pol 5' 10 (DRC-2, read at 5', concentration 10): 33% | % inhibition Apo pol 5' 20 (DRC-2, read at 5', concentration 20): 44% | % inhibition Apo pol 5' 40 (DRC-2, read at 5', concentration 40): 53% | % inhibition Apo pol 5' 80 (DRC-2, read at 5', concentration 80): 57% | % inhibition Apol 40' 2.5 (DRC-2, read at 40', concentration 2.5): 13% | % inhibition Apol 40' 5 (DRC-2, read at 40', concentration 5): 28% | % inhibition Apol 40' 10 (DRC-2, read at 40', concentration 10): 33% | % inhibition Apol 40' 20 (DRC-2, read at 40', concentration 20): 49% | % inhibition Apol 40' 40 (DRC-2, read at 40', concentration 40): 60% | % inhibition Apol 40' 80 (DRC-2, read at 40', concentration 80): 65% | % inhibition ApPOL 90' 2.5 (DRC-2, read at 90', concentration 2.5): 11% | % inhibition ApPOL 90' 5 (DRC-2, read at 90', concentration 5): 26% | % inhibition ApPOL 90' 10 (DRC-2, read at 90', concentration 10): 31% | % inhibition ApPOL 90' 20 (DRC-2, read at 90', concentration 20): 47% | % inhibition ApPOL 90' 40 (DRC-2, read at 90', concentration 40): 59% | % inhibition ApPOL 90' 80 (DRC-2, read at 90', concentration 80): 66% | % inhibition apPOL 180' 2.5 (DRC-2, concentration 2.5): 5.4% | % inhibition apPOL 180' 5 (DRC-2, concentration 5): 17% | % inhibition apPOL 180' 10 (DRC-2, concentration 10): 23% | % inhibition apPOL 180' 20 (DRC-2, concentration 20): 40% | % inhibition apPOL 180' 40 (DRC-2, concentration 40): 53% | % inhibition apPOL 180' 80 (DRC-2, concentration 80): 61%

Cc1nc(/N=N/c2ccc(C(=O)[O-])cc2)c(COP(=O)([O-])[O-])c(C=O)c1O.[Na+].[Na+].[Na+] [KU0261395]
DNA Pol ('DNA Pol' of the 186 hits list (primary screen value)): 94 | DNA Pol (DNA Pol (primary screen value)): 94 | % inhibition Apo pol 10' (DRC-1, concentration 2.5): 68.7077% | % inhibition Apo pol 10' (DRC-1, concentration 5): 75.1682% | % inhibition Apo pol 10' (DRC-1, concentration 10): 82.6072% | % inhibition Apo pol 10' (DRC-1, concentration 20): 83.4638% | % inhibition Apo pol 10' (DRC-1, concentration 40): 87.7541% | % inhibition Apo pol 10' (DRC-1, concentration 80): 88.013% | % inhibition Apol 90' (DRC-1, concentration 2.5): 38.1069% | % inhibition Apol 90' (DRC-1, concentration 5): 43.9893% | % inhibition Apol 90' (DRC-1, concentration 10): 54.4878% | % inhibition Apol 90' (DRC-1, concentration 20): 58.7781% | % inhibition Apol 90' (DRC-1, concentration 40): 68.7531% | % inhibition Apol 90' (DRC-1, concentration 80): 75.4152% | % inhibition apPOL 180' (DRC-1, concentration 2.5): 26.3863% | % inhibition apPOL 180' (DRC-1, concentration 5): 31.3621% | % inhibition apPOL 180' (DRC-1, concentration 10): 42.4654% | % inhibition apPOL 180' (DRC-1, concentration 20): 47.0791% | % inhibition apPOL 180' (DRC-1, concentration 40): 59.2191% | % inhibition apPOL 180' (DRC-1, concentration 80): 68.3493% | % inhibition Apo pol 5' (DRC-2, concentration 2.5): 42% | % inhibition Apo pol 5' (DRC-2, concentration 5): 44% | % inhibition Apo pol 5' (DRC-2, concentration 10): 53% | % inhibition Apo pol 5' (DRC-2, concentration 20): 53% | % inhibition Apo pol 5' (DRC-2, concentration 40): 54% | % inhibition Apo pol 5' (DRC-2, concentration 80): 55% | % inhibition Apol 40' (DRC-2, concentration 2.5): 33% | % inhibition Apol 40' (DRC-2, concentration 5): 40% | % inhibition Apol 40' (DRC-2, concentration 10): 51% | % inhibition Apol 40' (DRC-2, concentration 20): 56% | % inhibition Apol 40' (DRC-2, concentration 40): 61% | % inhibition Apol 40' (DRC-2, concentration 80): 66% | % inhibition ApPOL 90' (DRC-2, concentration 2.5): 29% | % inhibition ApPOL 90' (DRC-2, concentration 5): 36% | % inhibition ApPOL 90' (DRC-2, concentration 10): 48% | % inhibition ApPOL 90' (DRC-2, concentration 20): 53% | % inhibition ApPOL 90' (DRC-2, concentration 40): 60% | % inhibition ApPOL 90' (DRC-2, concentration 80): 66% | % inhibition apPOL 180' (DRC-2, concentration 2.5): 20% | % inhibition apPOL 180' (DRC-2, concentration 5): 26% | % inhibition apPOL 180' (DRC-2, concentration 10): 39% | % inhibition apPOL 180' (DRC-2, concentration 20): 48% | % inhibition apPOL 180' (DRC-2, concentration 40): 56% | % inhibition apPOL 180' (DRC-2, concentration 80): 66%
